In brackets after ≈: the same amount, converted by molar mass.
How the values were obtained:
Type in all cases: functional
Aspergillus niger = assay: Antimicrobial activity against Aspergillus niger MTCC 282 assessed as growth inhibition measured after overnight incubation by broth dilution method
Staphylococcus aureus = assay: Antimicrobial activity against Staphylococcus aureus MTCC 96 assessed as growth inhibition measured after overnight incubation by broth dilution method
[1] = tested on: Mycobacterium tuberculosis; assay: Antitubercular activity against Mycobacterium tuberculosis H37Rv assessed as growth inhibition after 12 to 28 days by L.J. agar MIC method
Pseudomonas aeruginosa = assay: Antimicrobial activity against Pseudomonas aeruginosa MTCC 2488 assessed as growth inhibition measured after overnight incubation by broth dilution method
Candida albicans = assay: Antimicrobial activity against Candida albicans MTCC 227 assessed as growth inhibition measured after overnight incubation by broth dilution method
Escherichia coli = assay: Antimicrobial activity against Escherichia coli MTCC 443 assessed as growth inhibition measured after overnight incubation by broth dilution method
Aspergillus clavatus = assay: Antimicrobial activity against Aspergillus clavatus MTCC 1323 assessed as growth inhibition measured after overnight incubation by broth dilution method
Streptococcus pyogenes = assay: Antimicrobial activity against Streptococcus pyogenes MTCC 442 assessed as growth inhibition measured after overnight incubation by broth dilution method

Question: For `O=C(CCl)Nn1cnnc1`, which MIC (Aspergillus niger) is on record?
Answer: > 1000 µg/mL

Question: What about the MIC (Staphylococcus aureus) of the same compound?
Answer: 500 µg/mL (≈ 3.11 mM)

Question: And the “growth inhibition (GI)” value [1]?
Answer: 90%

Question: What about the MIC ([1]; Mycobacterium tuberculosis, H37Rv) of the same compound?
Answer: 1000 µg/mL (≈ 6.23 mM)

Question: And the MIC (Pseudomonas aeruginosa)?
Answer: 250 µg/mL (≈ 1.56 mM)

Question: And the MIC (Candida albicans)?
Answer: 1000 µg/mL (≈ 6.23 mM)

Question: What about the MIC (Escherichia coli) of the same compound?
Answer: 250 µg/mL (≈ 1.56 mM)

Question: And the MIC (Aspergillus clavatus)?
Answer: > 1000 µg/mL

Question: What about the MIC (Streptococcus pyogenes) of the same compound?
Answer: 250 µg/mL (≈ 1.56 mM)
